Values belong to the compound of their own block, whether it stands above or below them.
Columns and labels:
[1] = Inhibition of jack bean alpha-D-mannosidase; parameters: species or system Canavalia ensiformis
[2] = Inhibition of almond beta-D-glucosidase; parameters: species or system Prunus dulcis
[3] = Inhibition of Escherichia coli beta-D-galactosidase
[4] = Inhibition of green coffee bean alpha-D-galactosidase
[5] = Inhibition of bovine kidney alpha-L-fucosidase; parameters: species or system Bos taurus
Cornu aspersum = assay: Inhibition of snail beta-D-mannosidase at 1 mM
Bos taurus = species: Bos taurus; assay: Inhibition of bovine kidney alpha-L-fucosidase at 1 mM
[6] = Inhibition of green coffee bean alpha-D-galactosidase at 1 mM
[7] = Inhibition of Aspergillus wentii beta-D-mannosidase
[8] = target: T1, Glucoamylase, intracellular sporulation-specific (Saccharomyces cerevisiae S288c) (UniProt P08019); assay: Inhibition of yeast alpha-D-glucosidase at 1 mM
T1 sequence (whole entry): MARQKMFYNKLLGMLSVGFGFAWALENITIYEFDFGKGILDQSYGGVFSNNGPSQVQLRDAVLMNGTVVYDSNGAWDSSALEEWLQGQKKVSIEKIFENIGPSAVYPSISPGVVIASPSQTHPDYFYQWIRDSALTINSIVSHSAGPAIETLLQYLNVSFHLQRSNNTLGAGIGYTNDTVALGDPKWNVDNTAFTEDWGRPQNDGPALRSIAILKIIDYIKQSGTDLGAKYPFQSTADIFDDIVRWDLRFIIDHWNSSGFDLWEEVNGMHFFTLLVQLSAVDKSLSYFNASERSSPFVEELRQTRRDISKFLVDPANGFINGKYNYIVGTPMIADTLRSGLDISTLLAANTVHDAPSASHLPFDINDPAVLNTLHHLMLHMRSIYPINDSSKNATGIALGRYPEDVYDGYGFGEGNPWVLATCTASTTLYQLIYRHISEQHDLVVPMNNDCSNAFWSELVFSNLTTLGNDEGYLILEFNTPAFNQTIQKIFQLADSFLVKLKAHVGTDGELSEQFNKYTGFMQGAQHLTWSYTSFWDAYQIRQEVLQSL

Escherichia coli = assay: Inhibition of Escherichia coli beta-D-galactosidase at 1 mM
[9] = Inhibition of snail beta-D-mannosidase; parameters: species or system Cornu aspersum

Compound: O=S(=O)(O)C1NC[C@@H](O)[C@@H]1O (stereo not given in full)
- Ki [1]: 5 µM
- IC50 [2]: 180 µM

Compound: O[C@@H]1C=NC[C@@H]1O
- Ki [1]: 2 µM
- Ki [3]: 0.2 µM
- Ki [2]: 0.3 µM
- Ki [4]: 0.2 µM
- IC50 [5]: 1000 µM

Compound: O[C@@H]1CNC[C@H]1O
- inhibition [8]: 43%
- inhibition (Escherichia coli): 20%
- inhibition [6]: 27%

Compound: O[C@@H]1CN=C[C@@H]1O
- Ki [1]: 20 µM
- IC50 [3]: 1000 µM
- Ki [5]: 3 µM

Continued, values first:

- IC50 [1]: 200 µM
- IC50 [2]: 500 µM
Compound: OC[C@H]1NC[C@@H](O)[C@@H]1O

- IC50 [2]: 2000 µM
- inhibition (Cornu aspersum): 28%
- inhibition (Bos taurus): 23%
- inhibition [6]: 20%
Compound: O=S(=O)(O)C1NC[C@H](O)[C@H]1O (stereo not given in full)

- Ki [1]: 500 µM
- Ki [7]: 900 µM
- Ki [2]: 0.9 µM
Compound: OC[C@H]1NC(O)[C@H](O)[C@@H](O)[C@@H]1O (stereo not given in full) [NOJIRIMYCIN]

- IC50 [1]: 3 µM
- Ki [7]: 42 µM
- IC50 [2]: 2.2 µM
Compound: OC[C@H]1N=C[C@@H](O)[C@@H]1O [NECTRISINE]

- Ki [1]: 5 µM
- IC50 [2]: 200 µM
- inhibition (Cornu aspersum): 50%
- IC50 [9]: 1000 µM
- inhibition [6]: 40%
Compound: O[C@H]1[C@H](O)CN[C@H]1O
